We go through three compounds from ChEMBL document CHEMBL2375306, “Antimicrobial peptides containing unnatural amino acid exhibit potent bactericidal activity against ESKAPE pathogens” (Bioorg Med Chem, 2013).

The structures appear in SMILES notation. ≈ marks a conversion by molar mass, not a printed value. Square brackets hold non-standard residues; d marks the D form. Peptide text beside a SMILES is read from it. ξ: configuration not given here. Pro(3ξ,4ξ-(CH2)4) = O=C(O)[C@H]1NCC2CCCCC21; Pro(3,4-benzo) = O=C(O)[C@H]1NCc2ccccc21; Tic = O=C(O)[C@@H]1Cc2ccccc2CN1

Holding throughout (type): functional
The subject of one test is Klebsiella pneumoniae. Description: Antibacterial activity against Klebsiella pneumoniae BAMS clinical isolate 07-18 after 24 hrs by broth microdilution method. As to conditions: BAMS clinical isolate 07-18, 24 h. A general note: Dilution methods test growth across graded concentrations, often in twofold steps.
For the next test, the system named is Enterococcus faecium. Put plainly: Antibacterial activity against Enterococcus faecium MMC4 after 24 hrs by broth microdilution method. As to conditions: MMC4, 24 h.
Another test concerns Klebsiella aerogenes. Description: Antibacterial activity against Enterobacter aerogenes after 24 hrs by broth microdilution method.
The test system of a further test is Pseudomonas aeruginosa. Put plainly: Antibacterial activity against Pseudomonas aeruginosa PAO1 after 24 hrs by broth microdilution method. As to conditions: PAO1, 24 h.
In another test the test system is Acinetobacter baumannii. Put plainly: Antibacterial activity against Acinetobacter baumannii WRAIR clinical isolate 13 after 24 hrs by broth microdilution method. As to conditions: WRAIR clinical isolate 13, 24 h.
In another test the test system is Staphylococcus aureus. Put plainly: Antibacterial activity against methicillin-sensitive Staphylococcus aureus UAMS-1 after 24 hrs by broth microdilution method. As to conditions: UAMS-1, 24 h.

The MBC is the lowest tested concentration that kills the bacteria rather than only halting them. A word on the MIC: it is the lowest concentration that inhibits growth of the organism. A low value points to a more susceptible organism. `CC(C)C[C@H](NC(=O)[C@@H](N)CCCCN)C(=O)N1Cc2ccccc2C[C@H]1C(=O)N1CC2CCCCC2[C@H]1C(=O)N[C@@H](CCCCN)C(=O)N1Cc2ccccc2C[C@H]1C(=O)N1CC2CCCCC2[C@H]1C(=O)NC(=O)CN[C@@H](Cc1ccccc1)C(=O)N1Cc2ccccc2C[C@H]1C(=O)N1CC2CCCCC2[C@H]1C(=O)N[C@@H](CCCCN)C(=O)N1Cc2ccccc2C[C@H]1C(=O)N1CC2CCCCC2[C@H]1C(=O)NC(=O)CN[C@@H](Cc1ccccc1)C(=O)N1Cc2ccccc2C[C@H]1C(=O)N1CC2CCCCC2[C@H]1C(=O)N[C@@H](CCCCN)C(=O)N1Cc2ccccc2C[C@H]1C(=O)N1CC2CCCCC2[C@H]1C(=O)N[C@@H](CCCCN)C(=O)N[C@@H](CCCCN)C(=O)N[C@@H](CCCCN)C(=O)N[C@@H](CCCCN)C(N)=O` (stereo partly specified): the MBC is 100 µg/mL (≈ 29.2 µM) in the test on Klebsiella pneumoniae; 25 µg/mL (≈ 7.3 µM) against Enterococcus faecium; greater than 100 µg/mL with Klebsiella aerogenes; 50 µg/mL (≈ 14.6 µM) in the test with Pseudomonas aeruginosa; 100 µg/mL (≈ 29.2 µM) against Acinetobacter baumannii; 50 µg/mL (≈ 14.6 µM) with Staphylococcus aureus. Besides, the MIC in the test on Klebsiella pneumoniae was greater than 100 µg/mL; in the test on Enterococcus faecium it was 6.25 µg/mL (≈ 1.82 µM); against Klebsiella aerogenes, greater than 100 µg/mL; in the test on Pseudomonas aeruginosa, 50 µg/mL (≈ 14.6 µM); in the test on Acinetobacter baumannii, 25 µg/mL (≈ 7.3 µM); against Staphylococcus aureus, 50 µg/mL (≈ 14.6 µM).
Consider `CC(=O)NCC(=O)N[C@@H](CC(=O)O)C(=O)N[C@@H](Cc1ccccc1)C(=O)N1Cc2ccccc2C[C@H]1C(=O)N1CC2CCCCC2[C@H]1C(=O)NCC(=O)N[C@@H](CCCCN)C(=O)N1Cc2ccccc2C[C@H]1C(=O)N1CC2CCCCC2[C@H]1C(=O)NCC(=O)N[C@@H](CC(=O)O)C(=O)N[C@@H](Cc1ccccc1)C(=O)N1Cc2ccccc2C[C@H]1C(=O)N1CC2CCCCC2[C@H]1C(=O)NCC(=O)N[C@@H](CCCCN)C(=O)N1Cc2ccccc2C[C@H]1C(=O)N[C@@H](CCCCN)C(=O)N[C@@H](CCCCN)C(=O)N[C@@H](CCCCN)C(=O)N[C@@H](CCCCN)C(N)=O` (stereo partly specified) (Ac-GDF[Tic][Pro(3ξ,4ξ-(CH2)4)]GK[Tic][Pro(3ξ,4ξ-(CH2)4)]GDF[Tic][Pro(3ξ,4ξ-(CH2)4)]GK[Tic]KKKK-NH2), for which the minimum bactericidal concentration (MBC) against Klebsiella pneumoniae came out at 100 µg/mL (≈ 37.4 µM); with Enterococcus faecium, 50 µg/mL (≈ 18.7 µM); against Klebsiella aerogenes it was 100 µg/mL (≈ 37.4 µM); in the test with Pseudomonas aeruginosa, 50 µg/mL (≈ 18.7 µM); against Acinetobacter baumannii, 12.5 µg/mL (≈ 4.68 µM); in the test on Staphylococcus aureus, 100 µg/mL (≈ 37.4 µM). For the same compound, the MIC with Klebsiella pneumoniae turned out to be 50 µg/mL (≈ 18.7 µM); against Enterococcus faecium it was 12.5 µg/mL (≈ 4.68 µM); in the test on Klebsiella aerogenes it was 100 µg/mL (≈ 37.4 µM); with Pseudomonas aeruginosa, 50 µg/mL (≈ 18.7 µM); in the test with Acinetobacter baumannii it was 12.5 µg/mL (≈ 4.68 µM); against Staphylococcus aureus, 100 µg/mL (≈ 37.4 µM).
Regarding `CC(=O)NCC(=O)N[C@@H](Cc1ccccc1)C(=O)N1Cc2ccccc2[C@H]1C(=O)N1CC2CCCCC2[C@H]1C(=O)NCC(=O)N[C@@H](CCCCN)C(=O)N1Cc2ccccc2[C@H]1C(=O)N1CC2CCCCC2[C@H]1C(=O)NCC(=O)N[C@@H](Cc1ccccc1)C(=O)N1Cc2ccccc2[C@H]1C(=O)N1CC2CCCCC2[C@H]1C(=O)NCC(=O)N[C@@H](CCCCN)C(=O)N1Cc2ccccc2C[C@H]1C(=O)N[C@@H](CCCCN)C(=O)N[C@@H](CCCCN)C(=O)N[C@@H](CCCCN)C(=O)N[C@@H](CCCCN)C(N)=O` (stereo partly specified) (Ac-GF[Pro(3,4-benzo)][Pro(3ξ,4ξ-(CH2)4)]GK[Pro(3,4-benzo)][Pro(3ξ,4ξ-(CH2)4)]GF[Pro(3,4-benzo)][Pro(3ξ,4ξ-(CH2)4)]GK[Tic]KKKK-NH2), the MBC was greater than 100 µg/mL in the test with Klebsiella pneumoniae; 100 µg/mL (≈ 41.7 µM) against Enterococcus faecium; greater than 100 µg/mL against Klebsiella aerogenes; greater than 100 µg/mL against Pseudomonas aeruginosa; 12.5 µg/mL (≈ 5.21 µM) against Acinetobacter baumannii; greater than 100 µg/mL in the test with Staphylococcus aureus. Moreover, the minimum inhibitory concentration (MIC) was greater than 100 µg/mL in the test on Klebsiella pneumoniae; 12.5 µg/mL (≈ 5.21 µM) in the test on Enterococcus faecium; greater than 100 µg/mL in the test on Klebsiella aerogenes; greater than 100 µg/mL in the test on Pseudomonas aeruginosa; 12.5 µg/mL (≈ 5.21 µM) against Acinetobacter baumannii; greater than 100 µg/mL in the test on Staphylococcus aureus.
